Assay results: patent publication US12655116B2, “Substituted isophthalic acid diamides” (Bayer Aktiengesellschaft, priority 2020, dated 2026)

Columns and labels:
ABUTH [1] = test: Pre-emergence herbicidal action against ABUTH; assay type: in vivo, Abutilon theophrasti; conditions: for pest or weed control at 80 g/ha / pest or weed control at 20 g/ha: Abutilon theophrasti, 504 h; for pest or weed control at 20 g/ha: read-out: Pre-emergence action against ABUTH (herbicidal activity in percent)
Outline: (§1)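 Herbicidal effect was assessed 3 weeks after treatment by visual comparison with untreated controls, 100% denoting dead plants. Aqueous WP or EC preparations had been applied at 600 to 800 l/ha with 0.2% wetting agent to the soil covering freshly sown seeds.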

ALOMY [2] = test: Pre-emergence herbicidal action against ALOMY; assay type: in vivo, Alopecurus myosuroides; conditions: for pest or weed control at 80 g/ha / pest or weed control at 20 g/ha: Alopecurus myosuroides, 504 h
Outline: as §1

AMARE [3] = test: Pre-emergence herbicidal action against AMARE; assay type: in vivo, Amaranthus retroflexus; conditions: for pest or weed control at 20 g/ha / pest or weed control at 80 g/ha: Amaranthus retroflexus, 504 h
Outline: as §1

AVEFA = test: Pre-emergence herbicidal action against AVEFA; assay type: in vivo, Avena fatua; conditions: 80 g/ha, pre-emergence; for pest or weed control at 80 g/ha: Avena fatua, 504 h
Outline: as §1

ECHCG [4] = test: Pre-emergence herbicidal action against ECHCG; assay type: in vivo, Echinochloa crus-galli; conditions: 80 g/ha; for pest or weed control at 80 g/ha: Echinochloa crus-galli, 504 h
Outline: as §1

LOLRI = test: Pre-emergence herbicidal action against LOLRI; assay type: in vivo, Lolium rigidum; conditions: 80 g/ha; for pest or weed control at 80 g/ha: Lolium rigidum, 504 h
Excerpt: Seeds of monocotyledonous and dicotyledonous weed plants and crop plants are laid out in sandy loam soil in wood-fiber pots and covered with soil. The compounds of the invention, formulated in the form of wettable powders (WP) or as emulsion concentrates (EC), are then applied to the surface of the covering soil in the form of an aqueous suspension or emulsion at a water application rate equivalent to 600 to 800 l/ha, with addition of 0.2% wetting agent. After the treatment, the pots are placed in a greenhouse and kept under good growth conditions for the trial plants. The damage to the test plants is scored visually after a test period of 3 weeks by comparison with untreated controls (herbicidal activity in percent (%): 100% activity=the plants have died, 0% activity=like control plants). […] The tables below illustrate, in an illustrative manner, the post-emergence herbicidal action of the compounds of the invention, the herbicidal activity being stated in percent.

MATIN = test: Pre-emergence herbicidal action against MATIN; assay type: in vivo, Matricaria inodora; conditions: for pest or weed control at 20 g/ha / pest or weed control at 80 g/ha: Tripleurospermum inodorum, 504 h
Outline: as §1

PHBPU = test: Pre-emergence herbicidal action against PHBPU; assay type: in vivo, Pharbitis purpurea; conditions: dosage 80 g/ha; for pest or weed control at 80 g/ha: Ipomoea purpurea, 504 h
Outline: as §1

SETVI [5] = test: Pre-emergence herbicidal action against SETVI; assay type: in vivo, Setaria viridis
Outline: as §1

VIOTR [6] = test: Pre-emergence herbicidal action against VIOTR; assay type: in vivo, Viola tricolor
Outline: as §1

DIGSA = test: Pre-emergence herbicidal action against DIGSA; assay type: in vivo, Digitaria sanguinalis
Outline: as §1

ALOMY [7] = test: Post-emergence herbicidal action against ALOMY; assay type: in vivo, Alopecurus myosuroides; conditions: visual assessment about 3 weeks after treatment vs untreated controls
Outline: (§2)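 Herbicidal effect was scored visually in percent after about 3 weeks in the greenhouse. Plants had been raised in sandy loam and treated post-emergence at the one-leaf stage with formulated compound at 600 to 800 l/ha water plus 0.2% wetting agent.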

ECHCG [8] = test: Post-emergence herbicidal action against ECHCG; assay type: in vivo, Echinochloa crus-galli
Outline: as §2

SETVI [9] = test: Post-emergence herbicidal action against SETVI; assay type: in vivo, Setaria viridis
Outline: as §2

VIOTR [10] = test: Post-emergence herbicidal action against VIOTR; assay type: in vivo, Viola tricolor
Outline: as §2

ABUTH [11] = test: Post-emergence herbicidal action against ABUTH; assay type: in vivo, Abutilon theophrasti; conditions: Abutilon theophrasti, 504 h, visual assessment about 3 weeks after treatment vs untreated controls; for pest or weed control at 5 g/ha: dosage 5 g/ha; for pest or weed control at 20 g/ha: dosage 20 g/ha
Outline: as §2

AMARE [12] = test: Post-emergence herbicidal action against AMARE; assay type: in vivo, Amaranthus retroflexus; conditions: Amaranthus retroflexus, 504 h, 20 g/ha, visual assessment about 3 weeks after treatment, 100% = plants have died, 0% = like control plants
Outline: as §2

VERPE [13] = test: Post-emergence herbicidal action against VERPE; assay type: in vivo, Veronica persica; conditions: Veronica persica, 504 h, 20 g/ha
Outline: as §2

VERPE [14] = test: Pre-emergence herbicidal action against VERPE; assay type: in vivo, Veronica persica; conditions: Veronica persica, 504 h, dosage 80 g/ha
Outline: as §1

[15] = 80 g/ha, scored visually after 3 weeks vs untreated controls (100% = plants have died, 0% = like control plants)
[16] = dosage 20 g/ha, scored visually after 3 weeks vs untreated controls, 100% = plants have died, 0% = like control plants
[17] = 80 g/ha, pre-emergence, scored visually after 3 weeks vs untreated controls (100% = plants have died, 0% = like control plants)
[18] = 20 g/ha, scored visually after 3 weeks vs untreated controls, 100% = plants have died, 0% = like control plants
[19] = pre-emergence, 20 g/ha, scored visually after 3 weeks, 100% = plants have died, 0% = like control plants
[20] = 80 g/ha, scored visually after 3 weeks vs untreated controls, 100% = plants have died, 0% = like control plants
[21] = Viola tricolor, 504 h, dosage 80 g/ha
[22] = Alopecurus myosuroides, 504 h, dosage 20 g/ha
[23] = Echinochloa crus-galli, 504 h, dosage 20 g/ha

## Cn1nnnc1NC(=O)c1ccc(Br)c(C(=O)NCC(F)F)c1Cl [Example 1-182]
ABUTH [1]; [15]
  Pre-emergence action against ABUTH (herbicidal activity): 100%
ABUTH [1]; [16]
  Pre-emergence action against ABUTH (herbicidal activity in percent): 100%
ALOMY [2]; 20 g/ha, scored visually after 3 weeks, 100% = plants have died, 0% = like control plants
  Pre-emergence action against ALOMY: 80%
ALOMY [2]; [17]
  Pre-emergence action against ALOMY (herbicidal activity): 100%
AMARE [3]; [18]
  Pre-emergence action against AMARE in %: 100%
AMARE [3]; [15]
  Pre-emergence action against AMARE in %: 100%
AVEFA
  Pre-emergence action against AVEFA in %: 90%
ECHCG [4]
  Pre-emergence action against ECHCG in %: 100%
LOLRI
  Pre-emergence action against LOLRI in %: 80%
MATIN; dosage 20 g/ha
  Pre-emergence action against MATIN in %: 90%
MATIN; dosage 80 g/ha
  Pre-emergence action against MATIN in %: 100%
PHBPU
  Pre-emergence action against PHBPU in %: 90%
SETVI [5]; dosage 20 g/ha
  Pre-emergence action against SETVI in %: 100%
SETVI [5]; dosage 80 g/ha
  Pre-emergence action against SETVI in %: 100%
VIOTR [6]; dosage 20 g/ha
  Pre-emergence action against VIOTR in %: 90%
VIOTR [6]; dosage 80 g/ha
  Pre-emergence action against VIOTR in %: 100%
DIGSA; dosage 20 g/ha
  Pre-emergence action against DIGSA in %: 100%
DIGSA; dosage 80 g/ha
  Pre-emergence action against DIGSA in %: 100%
ALOMY [7]; dosage 5 g/ha
  Post-emergence action against ALOMY in %: 90%
ALOMY [7]; dosage 20 g/ha
  Post-emergence action against ALOMY in %: 100%
ECHCG [8]; dosage 20 g/ha
  Post-emergence action against ECHCG in %: 80%
SETVI [9]; dosage 5 g/ha
  Post-emergence action against SETVI in %: 90%
SETVI [9]; dosage 20 g/ha
  Post-emergence action against SETVI in %: 100%
VIOTR [10]; 5 g/ha
  Post-emergence action against VIOTR in %: 100%
VIOTR [10]; 20 g/ha
  Post-emergence action against VIOTR in %: 100%

## CC(C)NC(=O)c1c(Br)ccc(C(=O)Nc2nnnn2C)c1Cl [Example 1-185]
ABUTH [1]; [15]
  pest or weed control at 80 g/ha: 100%
ABUTH [1]; [16]
  pest or weed control at 20 g/ha: 100%
ALOMY [2]; [17]
  pest or weed control at 80 g/ha: 100%
ALOMY [2]; [19]
  pest or weed control at 20 g/ha: 90%
AMARE [3]; [18]
  pest or weed control at 20 g/ha: 100%
AMARE [3]; [20]
  pest or weed control at 80 g/ha: 100%
AVEFA
  pest or weed control at 80 g/ha: 100%
ECHCG [4]
  pest or weed control at 80 g/ha: 100%
LOLRI
  pest or weed control at 80 g/ha: 90%
MATIN; dosage 20 g/ha
  pest or weed control at 20 g/ha: 100%
MATIN; dosage 80 g/ha
  pest or weed control at 80 g/ha: 100%
PHBPU
  pest or weed control at 80 g/ha: 80%
SETVI [5]; Setaria viridis, 504 h, dosage 80 g/ha
  pest or weed control at 80 g/ha: 100%
VIOTR [6]; Viola tricolor, 504 h, dosage 20 g/ha
  pest or weed control at 20 g/ha: 80%
VIOTR [6]; [21]
  pest or weed control at 80 g/ha: 100%
ABUTH [11]
  pest or weed control at 5 g/ha: 80%
  pest or weed control at 20 g/ha: 90%
ALOMY [7]; [22]
  pest or weed control at 20 g/ha: 90%
AMARE [12]
  pest or weed control at 20 g/ha: 100%
ECHCG [8]; Echinochloa crus-galli, 504 h, dosage 5 g/ha
  pest or weed control at 5 g/ha: 90%
ECHCG [8]; [23]
  pest or weed control at 20 g/ha: 100%
SETVI [9]; Setaria viridis, 504 h, dosage 5 g/ha
  pest or weed control at 5 g/ha: 80%
SETVI [9]; Setaria viridis, 504 h, dosage 20 g/ha
  pest or weed control at 20 g/ha: 100%
VERPE [13]
  pest or weed control at 20 g/ha: 80%
VIOTR [10]; Viola tricolor, 504 h, 20 g/ha
  pest or weed control at 20 g/ha: 80%

## CCCNC(=O)c1c(Br)ccc(C(=O)Nc2nnnn2CC)c1Cl [Example 2-184]
ABUTH [1]; [15]
  pest or weed control at 80 g/ha: 100%
ABUTH [1]; [16]
  pest or weed control at 20 g/ha: 100%
ALOMY [2]; [17]
  pest or weed control at 80 g/ha: 100%
ALOMY [2]; [19]
  pest or weed control at 20 g/ha: 90%
AMARE [3]; [18]
  pest or weed control at 20 g/ha: 100%
AMARE [3]; [20]
  pest or weed control at 80 g/ha: 100%
AVEFA
  pest or weed control at 80 g/ha: 90%
ECHCG [4]
  pest or weed control at 80 g/ha: 100%
LOLRI
  pest or weed control at 80 g/ha: 80%
MATIN; dosage 20 g/ha
  pest or weed control at 20 g/ha: 90%
MATIN; dosage 80 g/ha
  pest or weed control at 80 g/ha: 100%
PHBPU
  pest or weed control at 80 g/ha: 90%
VERPE [14]
  pest or weed control at 80 g/ha: 100%
VIOTR [6]; [21]
  pest or weed control at 80 g/ha: 100%
ABUTH [11]
  pest or weed control at 5 g/ha: 90%
  pest or weed control at 20 g/ha: 90%
ALOMY [7]; Alopecurus myosuroides, 504 h, dosage 5 g/ha
  pest or weed control at 5 g/ha: 80%
ALOMY [7]; [22]
  pest or weed control at 20 g/ha: 100%
AMARE [12]
  pest or weed control at 20 g/ha: 100%
ECHCG [8]; [23]
  pest or weed control at 20 g/ha: 100%
